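The compound was tested at five concentrations on cells cultured in 96-well plates, with a 48-hour exposure period. GI50: concentration for 50% inhibition of growth.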 Active and inactive are the calls of the source. Rule as the data show it: active = GI50 up to about 1.1 µM and inactive = higher.

Among the test systems are COLO 205; HOP-18; K562; OVCAR-5; RPMI-8226; SF-268; SF-539; SK-MEL-5; A498; HT-29; M14; NCI-H460; SNB-75; UACC-257; BT-549; DU-145; Hs-578T; MDA-N; NCI/ADR-RES; T47D.
Assay in all cases: growth of human tumour cells (NCI), 48 h

As to `Cc1ccc(C(c2c(O)c3ccccc3n(-c3ccccc3)c2=O)c2c(O)c3ccccc3n(-c3ccccc3)c2=O)cc1`, the GI50 in the experiment with COLO 205 is > 100 µM (inactive); with HOP-18 it was > 100 µM (inactive); in the experiment on K562, > 100 µM (inactive); in the experiment with OVCAR-5, > 100 µM (inactive); with RPMI-8226 it was > 100 µM (inactive); in the experiment on SF-268 it was 82.2 µM (inactive). Moreover, the GI50 in the experiment on SF-539 and in the experiment on SK-MEL-5 was > 100 µM (inactive) throughout.
For the molecule `CC1(C)OCN(c2ccc(S(N)(=O)=O)cc2)Cn2c1nc1ccccc12`, the GI50 in the experiment on A498, in the experiment on COLO 205, in the experiment with HOP-18, in the experiment on HT-29, with K562 and in the experiment with M14 was > 100 µM (inactive) throughout. Further, the GI50 in the experiment on NCI-H460, in the experiment with RPMI-8226, with SF-268, with SF-539, in the experiment with SNB-75 and in the experiment on UACC-257 was > 100 µM (inactive) in each case.
In the case of `Cc1ccc(/C=C/C(=O)c2sc(C(N)=S)nc2C)cc1`, the GI50 in the experiment with A498, in the experiment on COLO 205, with HOP-18, in the experiment with HT-29, with K562 and with NCI-H460 was > 100 µM (inactive) in each case. The GI50 in the experiment with OVCAR-5 is > 100 µM (inactive); in the experiment on RPMI-8226 it was > 100 µM (inactive); in the experiment on SF-268, > 100 µM (inactive); with SF-539, > 100 µM (inactive); with SK-MEL-5, 45.8 µM (inactive); with SNB-75 it was > 100 µM (inactive). Moreover, the GI50 in the experiment with UACC-257 is > 100 µM (inactive).
Take `Cn1c(=O)c2/c(n(C)c1=O)=N\C=c1\c(=O)n(C)c(=O)n(C)\c1=N\C=2`: the GI50 with A498, in the experiment on COLO 205, in the experiment with HOP-18, with HT-29, in the experiment on K562 and in the experiment on M14 was > 100 µM (inactive) throughout. The GI50 is > 100 µM (inactive) in the experiment on NCI-H460; > 100 µM (inactive) in the experiment on OVCAR-5; > 100 µM (inactive) with SF-268; > 100 µM (inactive) in the experiment on SF-539; > 100 µM (inactive) in the experiment with SK-MEL-5; 39.4 µM (inactive) with SNB-75. The GI50 in the experiment on UACC-257 was > 100 µM (inactive).
On to `CCOP(=O)(OCC)C(C(=O)OC)C(=O)C(=O)Nc1cccc([N+](=O)[O-])c1` (configuration not stated), for which the GI50 in the experiment with A498, with COLO 205, in the experiment on HOP-18, in the experiment with HT-29, in the experiment on K562 and in the experiment on M14 was > 100 µM (inactive) each time. Further, the GI50 with NCI-H460, in the experiment with OVCAR-5, in the experiment on SF-268, with SF-539, in the experiment with SK-MEL-5 and with SNB-75 was > 100 µM (inactive) throughout. The GI50 in the experiment with UACC-257 is > 100 µM (inactive).
In the case of `Nc1ccn(CCNCCn2cnc3nc(N)[nH]c(=O)c32)c(=O)n1`, the GI50 in the experiment with A498, with COLO 205, with HOP-18, in the experiment with HT-29, in the experiment on K562 and with NCI-H460 was > 100 µM (inactive) each time. For the same molecule, the GI50 in the experiment with OVCAR-5, in the experiment on RPMI-8226, in the experiment with SF-268, in the experiment with SF-539 and in the experiment on UACC-257 was > 100 µM (inactive) in each case.
As for `COc1ccccc1NC(=O)CC(=O)N/N=C/c1ccc(N(CCC#N)S(=O)(=O)c2ccccc2)cc1`, the GI50 with COLO 205, in the experiment on HOP-18, with HT-29, in the experiment with K562, in the experiment on M14 and in the experiment with NCI-H460 was > 100 µM (inactive) in each case. Further, the GI50 with OVCAR-5, with RPMI-8226, with SF-268, in the experiment on SK-MEL-5, with SNB-75 and in the experiment on UACC-257 was > 100 µM (inactive) in each case.
As to `Cc1ccc([N+](=O)[O-])cc1NC(=O)C(=O)Cc1nc2ccc(C(=O)c3ccccc3)cc2nc1O`, the GI50 in the experiment on COLO 205, with HOP-18, in the experiment with HT-29, in the experiment on M14, with NCI-H460 and with SF-539 was > 100 µM (inactive) each time. Also, the GI50 is > 100 µM (inactive) in the experiment on SK-MEL-5, 56.5 µM (inactive) with SNB-75 and > 100 µM (inactive) with UACC-257.
As to `Nn1c(CCCl)nc2c(Br)cc(Br)cc2c1=O`, the GI50 was 35.7 µM (inactive) in the experiment with A498; 23.9 µM (inactive) with COLO 205; 33.3 µM (inactive) in the experiment with HOP-18; 32.7 µM (inactive) in the experiment on HT-29; 13.2 µM (inactive) in the experiment with K562; 30.3 µM (inactive) with M14. Also, the GI50 in the experiment on NCI-H460 is 25.3 µM (inactive); in the experiment on OVCAR-5 it was 30.1 µM (inactive); in the experiment with RPMI-8226, 24.4 µM (inactive); with SF-268 it was 37.1 µM (inactive); with SF-539 it was 40.7 µM (inactive); in the experiment on SK-MEL-5 it was 17.3 µM (inactive). In addition, the GI50 is 27.8 µM (inactive) in the experiment on SNB-75 and 34.9 µM (inactive) in the experiment on UACC-257.
As to `C[n+]1c2n(c3nc(N)[nH]c(=O)c31)C1OC(C2)C(O)C1O` (configuration not stated), the GI50 in the experiment on A498, in the experiment on COLO 205, in the experiment with HOP-18, in the experiment with HT-29, with K562 and with M14 was > 100 µM (inactive) in each case. In addition, the GI50 in the experiment with OVCAR-5, in the experiment with SF-268, in the experiment on SF-539, in the experiment on SK-MEL-5, with SNB-75 and in the experiment with UACC-257 was > 100 µM (inactive) throughout.
`COC(=O)C1OC(SCCN)C(O)C(O)C1O` (configuration not stated): the GI50 in the experiment on A498, in the experiment on BT-549, in the experiment with COLO 205, in the experiment with DU-145, in the experiment with HT-29 and in the experiment with Hs-578T was > 100 µM (inactive) each time. The GI50 in the experiment on K562, in the experiment on M14, in the experiment on MDA-N, in the experiment on NCI-H460, with NCI/ADR-RES and in the experiment with OVCAR-5 was > 100 µM (inactive) in each case. Also, the GI50 with RPMI-8226, with SF-268, in the experiment on SF-539, in the experiment with SK-MEL-5, in the experiment on SNB-75 and with T47D was > 100 µM (inactive) each time. In addition, the GI50 in the experiment on UACC-257 is > 100 µM (inactive).
In the case of `COC(=O)/C=C\C(C#N)(C#N)/N=C/c1cc(Br)cs1`, the GI50 in the experiment on A498 was 18.5 µM (inactive); in the experiment with BT-549, 7.08 µM (inactive); in the experiment on COLO 205, 1.98 µM (inactive); in the experiment with DU-145, 7.31 µM (inactive); with HT-29, 1.94 µM (inactive); with Hs-578T, 22.8 µM (inactive). In addition, the GI50 was 0.562 µM (active) in the experiment on K562; 2.51 µM (inactive) with M14; 2.67 µM (inactive) in the experiment on MDA-N; 19.6 µM (inactive) in the experiment on NCI-H460; 15.7 µM (inactive) in the experiment with NCI/ADR-RES; 6.84 µM (inactive) in the experiment on OVCAR-5. Besides, the GI50 in the experiment on RPMI-8226 was 3.24 µM (inactive); in the experiment on SF-268, 6.1 µM (inactive); in the experiment on SF-539, 4.8 µM (inactive); in the experiment with SK-MEL-5 it was 6.3 µM (inactive); with SNB-75 it was 16.2 µM (inactive); in the experiment with T47D, 2.12 µM (inactive). Further, in the experiment with UACC-257, the GI50 was 2.67 µM (inactive).
As to `O=C1c2c(Br)sc(Br)c2[C@H]2NC(=S)O[C@@H]12`, the GI50 in the experiment with A498 is 23.5 µM (inactive); in the experiment on BT-549 it was 16.5 µM (inactive); in the experiment with COLO 205 it was 13.4 µM (inactive); with DU-145 it was 16 µM (inactive); in the experiment with HT-29, 14.5 µM (inactive); in the experiment on Hs-578T it was 23.2 µM (inactive). For the same molecule, the GI50 is 2.98 µM (inactive) in the experiment with K562; 14.3 µM (inactive) in the experiment on M14; 16 µM (inactive) in the experiment with MDA-N; 18.6 µM (inactive) with NCI-H460; 21.4 µM (inactive) with NCI/ADR-RES; 19.2 µM (inactive) with OVCAR-5. For the same molecule, the GI50 with RPMI-8226 is 7.38 µM (inactive); in the experiment with SF-268 it was 15 µM (inactive); in the experiment with SF-539 it was 17.9 µM (inactive); in the experiment with SK-MEL-5 it was 15.8 µM (inactive); in the experiment on SNB-75, 19.1 µM (inactive); in the experiment with T47D, 21.8 µM (inactive). Further, the GI50 in the experiment on UACC-257 was 16.8 µM (inactive).
For `COc1cccc(/C(C=O)=C(\Cl)c2ccc(OC)c(OC)c2)c1`, the GI50 in the experiment on COLO 205 was 14.5 µM (inactive); in the experiment on HOP-18, 13.6 µM (inactive); in the experiment with HT-29 it was 14.4 µM (inactive); in the experiment with K562, 13.6 µM (inactive); with M14, 17.6 µM (inactive); with NCI-H460, 13.3 µM (inactive). Also, the GI50 in the experiment with OVCAR-5 is 19 µM (inactive); with RPMI-8226, 11.5 µM (inactive); with SF-268, 11.7 µM (inactive); in the experiment with SF-539, 16.6 µM (inactive); in the experiment with SK-MEL-5 it was 12.7 µM (inactive); in the experiment with SNB-75, 5.04 µM (inactive). Further, the GI50 in the experiment on UACC-257 is 14.4 µM (inactive).

The values are drawn from ChEMBL document CHEMBL1201862, “PubChem BioAssay data set” (2004).
